Data reported in patent US20180356397A1, “MIMICRY OF NEUROINFLAMMATORY MICROENVIRONMENTS AND METHODS OF USE AND MANUFACTURING THEREOF” (priority 2017, published 2018).

Tests used:
[1] = system: neutrophils co-cultured with A-beta activated microglia; assay: neutrophil recruitment toward soluble A-beta activated microglia (co-culture in microfluidic device); assay type: cell-based, human; details: microglia-derived chemokines by A-beta stimulation
Description: Microglial cells are resident brain immune cells and stimulated by soluble A-beta42, which is a signature of human AD neurotoxic peptide. Based on our previous observation of neutrophil accumulation on A-beta plaques in in vivo, we hypothesize that A-beta activated microglial cells has a critical role in recruiting neutrophil. Stimulated microglial cells can release various types of chemokines and/or cytokines to increase inflammatory behavior or to clear A-beta in inflamed region. Furthermore, those secreted chemokines and/or cytokines can recruit other cell types including peripheral immune cells (FIG. 9A). To modulate this whole process, we established an in vitro AD brain-blood model (ADBBM) using microglia and neutrophil to mimic the brain microenvironment. To accommodate the different cells separately in a single microfluidic platform, we employed mechanically separated two chambers, which are connected through neutrophil specific migration channels (10×5×500 μm in width, height, and length) forming gradients of chemokines and/or cytokines (FIG. 9B).
Compared to a parallel configuration having equal surface areas for cell loading and cell collection, the asymmetric configuration of the current microfluidic device 10 has a small central cell collecting compartment (central chamber 30), which is smaller than a large annular cell loading compartment (annular chamber 50) by a factor of 3, 4, 5, 6, 7, 8, 9, 10 or greater. […] This enhances the gradient formation and detection of recruitment. The long and thin migration channels 60 can block spontaneous entrance of inactivated neutrophil through mechanical constraints. Using this platform, we could culture microglial cells for extended periods to accumulate enough soluble factors and could observe neutrophil signature movement at single cell resolution, in real-time. Red membrane dye stained microglial cells plated first in central chamber 30 and incubated for 3 days with soluble A-beta to modulate chemokine/cytokine enriched AD microenvironment. Freshly isolated neutrophil labeled with green membrane dye plated on annular chamber 50 and incubated under microscope to observe their movement and accumulation in central chamber 30. Precise numbers of neutrophils are reproducibly loaded and uniformly distributed in annular chamber 50 and this design allows us to evaluate the response of neutrophil to various types of chemokines and/or cytokines. We tested 200 independent conditions at the same time, by using real time imaging of process in an array of twenty-five formatted on a single well plate 140 or an array of one-hundred nineteen formatted single well plate 140 (FIG. 7 and FIG. 8).
To validate the dependency of neutrophil migration toward soluble A-beta activated microglia, microglial cells plated on central chamber 30 with various cell numbers (5,000, 10,000, 20,000 cells). Microglial cells are pre-labeled with membrane dye according to manufacturer's protocol to observe their morphology change. After 24 hour incubation of microglia alone, prepared soluble A-beta (2.2 uM) with reduced 1% FBS Prigrowlll media were changed to incubate further for 48 hours. After 48 hours, freshly isolated neutrophil labeled with green membrane dye plated on annular chamber 50 and incubated on microscopic real time imaging chamber. Neutrophil (green) migration could be observed toward soluble A-beta activated microglia (red) cultured central chamber 30 after 6 hours (FIG. 11A). 2.4-, 1.2-times higher neutrophil migration could be observed in central chamber 30 in response to 10,000 and 20,000 cultured microglia in central chamber 30 by showing the dependency of neutrophil recruitment in cell numbers. […] By utilizing high-resolution and spatiotemporal controlled microscopic imaging method, we also can quantify the persistent movement of microglial cells in various stimulations. […]

U87 glioma line = assay: glioma migration/invasiveness in microfluidic device, alone or in co-culture with microglia; assay type: cell-based; details: glioma cells cultured alone
Description: Here, we reconstituted a microenvironment of boosted brain tumor invasion by inducing glioma migration by using EGF, a chemoattractant for glioma, and promoting the migration via the incorporation with microglia. We plated both glioma and microglia on the outer chamber and EGF in the central chamber, which are connected through migration channels (50×10×500 μm in width, height, and length) forming gradients of chemokines for glioma. We found PAI-1 is abundantly expressed on most glioma lines. Next, we culture the U87 glioma line, which has produced PAI-1, to investigate the hypothesis that glioma-secreted PAI-1 interacts with microglia to affect glioma migration. In co-culture with microglia in a microfluidic device, the invasiveness of PAI-1 expressing U87 cell lines was increased. […] This study has uncovered a mechanism by which glioma cells exploit microglia for increased invasiveness. Specifically, glioma-derived PAI-1 acts upon microglia, which then produces IL-6 to stimulate gliomas. The PAI-1/IL-6 loop is a potential therapeutic target for the currently incurable malignant gliomas.

IL6: interleukin (IL)-6; microglia-derived cytokine, also used as recombinant protein
recruiting of neutrophils in the recapitulated AD environment [1]: effective for recruiting neutrophils
invasiveness of glioma cells (U87 glioma line): enhanced the invasiveness
